Data from PubChem BioAssay AID540269 (Sanford-Burnham Center for Chemical Genomics, 2011).
Calls of active or inactive are those of the source. The rule behind the calls is not given here.

target: glucose-6-phosphate dehydrogenase-6-phosphogluconolactonase (Plasmodium falciparum 3D7); assay: PfG6PD enzyme inhibitors, kinetic NADPH readout, dose response, orthogonal assay, biochemical, kinetic NADPH detection (AID 540269); details: purified PfG6PD-6PGL

Q: With `CN1CCN(C(=S)C(=O)Nc2ccc(Br)cc2)CC1` as the compound, how does the IC50 read?
A: The IC50 was 57.7 µM.

Q: Which IC50 does the source give for `COCc1cc(=O)n2[nH]c(C(C)(C)C)cc2n1` here?
A: Its IC50 is 43.2 µM.

Q: Which IC50 does the source give for `CCOc1cc(CNc2ccc(N3CCCC3)cc2)cc(Cl)c1OC` here?
A: Its IC50 is > 80 µM (inactive).

Q: `Cc1cc(O)c(C(C)C)cc1N=Cc1ccc([N+](=O)[O-])cc1` was tested. Which IC50 did it give?
A: The IC50 was > 80 µM (inactive).

Q: `O=C1C=C(NCCc2cc(Br)c(O)c(Br)c2)C(=O)c2ncccc21` was tested. Which IC50 did it give?
A: The IC50 was > 80 µM (inactive).

Q: With `C=CCN1CCc2cccc3c2[C@H]1Cc1ccc(O)c(O)c1-3` as the compound, how does the IC50 read?
A: Its IC50 is > 80 µM (inactive).

Q: Which IC50 does the source give for `c1ccc(-c2cn3c(n2)CCc2ccc4cccnc4c2-3)cc1` here?
A: Its IC50 is > 80 µM (inactive).

Q: For `O=C(CNC(=O)c1cccs1)NCC(=O)OCC(=O)c1ccc([N+](=O)[O-])cc1`, which IC50 is on record?
A: The IC50 was 62.9 µM.

Q: For `COc1cc(-c2nnc3n2N=C(c2ccccc2)CS3)cc(OC)c1OC`, which IC50 is on record?
A: The IC50 was > 80 µM (inactive).

Q: `CCOC(=O)c1c(C2COc3ccccc3O2)csc1NC(=O)c1ccco1` (stereo not drawn) was tested. Which IC50 did it give?
A: Its IC50 is > 80 µM (inactive).

Q: Which IC50 does the source give for `O=S(=O)(NCc1csc(-c2ccccc2)n1)c1ccc(Cl)s1` here?
A: The IC50 was > 80 µM (inactive).

Q: `Oc1ccc(C23CC4CC(CC(C4)C2)C3)cc1O` was tested. Which IC50 did it give?
A: Its IC50 is 37.8 µM.

Q: `Nc1c(O)cccc1C(=O)O` was tested. Which IC50 did it give?
A: The IC50 was 40.9 µM.

Q: How did the IC50 turn out when `Cc1ccc(-c2c(C(=O)N/N=C/c3cccs3)nnn2-c2nonc2N)cc1` was run?
A: The IC50 was > 80 µM (inactive).

Q: Which IC50 does the source give for `COc1c2ccoc2c(OCC=C(C)C)c2oc(=O)ccc12` here?
A: The IC50 was > 80 µM (inactive).

Q: For `COc1ccc(NS(=O)(=O)c2ccc(N3CCCC3)c(NC(=S)Nc3cccc(C)c3C)c2)cc1`, which IC50 is on record?
A: The IC50 was > 80 µM (inactive).

Q: With `COc1cc(NCCCn2cnc3c(OCc4ccccc4)ncnc32)cc(OC)c1OC` as the compound, how does the IC50 read?
A: Its IC50 is > 80 µM (inactive).

Q: Which IC50 does the source give for `S=C(NN=Cc1ccccn1)N(Cc1ccccn1)Cc1ccccn1` here?
A: The IC50 was 29.5 µM.

Q: For `O=C1C=CC2=C3c4cc(O)c(O)cc4CC3(O)COC2=C1O` (stereo not drawn), which IC50 is on record?
A: Its IC50 is 37.8 µM.

Q: For `Cc1ccc(-c2nc(N)s[n+]2-c2ccccc2)cc1`, which IC50 is on record?
A: Its IC50 is > 80 µM (inactive).

Q: `CCCN1CCc2cccc3c2[C@H]1Cc1ccc(O)c(O)c1-3` was tested. Which IC50 did it give?
A: The IC50 was > 80 µM (inactive).

Q: For `Cc1ccc(-n2c(N)c(C(=O)N3CCN(C)CC3)sc2=S)cc1`, which IC50 is on record?
A: Its IC50 is 70.6 µM.

Q: `CC(=O)Nc1ccc(S(=O)(=O)NNc2cccc(C)c2)cc1` was tested. Which IC50 did it give?
A: The IC50 was > 80 µM (inactive).
